Measurements as given in ChEMBL document CHEMBL1125153, “Structure-activity correlations for psychotomimetics. 1. Phenylalkylamines: electronic, volume, and hydrophobicity parameters” (1990).

Assays:
Type in all cases: functional
Homo sapiens [1] = species: Homo sapiens; experiment: Log value of hallucinogenic activity was determined
Homo sapiens [2] = species: Homo sapiens; experiment: Hallucinogenic activity i.e; ratio of effective dose of mescaline to the effective dose in human
Rattus norvegicus = experiment: Effective dose in rats trained on 1 mg/kg DOM.

| SMILES | Log activity (Homo sapiens [1]) | Activity (Homo sapiens [2]) | ED50 (Rattus norvegicus) |
| --- | --- | --- | --- |
| COc1ccc(CCN)cc1 | -0.301 | <1 MU | – |
| COc1cc(CC(C)N)c(OC)c(OC)c1 (stereo not drawn) | 0.602 | 4 MU | 16.5 mg/kg |
| COc1cc2c(cc1CC(C)N)OCO2 (stereo not drawn) | 1 | 10 MU | – |
| CCCCSc1c(OC)cc(CCN)cc1OC | 0.477 | 3 MU | – |
| COc1cc(CCN)c(OC)cc1C | 1.301 | 20 MU | 1.31 mg/kg |
| CCc1cc(OC)c(CCN)cc1OC | 1.255 | 18 MU | – |
| CCOc1cc(CCN)cc(OC)c1OCC | 0.176 | 1.5 MU | – |
| COc1cc(CC(C)N)c(OC)c(OC)c1OC (stereo not drawn) | 0.778 | 6 MU | – |
| COc1ccc(OC)c(OC)c1CC(C)N (stereo not drawn) | 1 | 10 MU | – |
| CCSc1cc(CCN)cc(OC)c1OC | 0.778 | 6 MU | – |
| COc1cc(CC(C)N)c(OC)c2c1OCO2 (stereo not drawn) | 1.079 | 12 MU | – |
| COc1cc(CC(C)N)cc2c1OCO2 (stereo not drawn) | 0.431 | 2.7 MU | 3.66 mg/kg |
| CCOc1cc(CCN)cc(SC)c1OCC | 0.301 | 2 MU | – |
| CCOc1c(OC)cc(CCN)cc1SCC | 0.301 | 2 MU | – |
| CCOc1cc(CCN)cc(OC)c1SCC | 0.602 | 4 MU | – |
| CCOc1cc(CCN)cc(OC)c1OC | 0 | 1 MU | – |
| COc1c(CC(C)N)ccc2c1OCO2 (stereo not drawn) | 1 | 10 MU | – |
| COc1cc(SC(C)C)c(OC)cc1CC(C)N (stereo not drawn) | 1.602 | 40 MU | – |
| CCCSc1c(OC)cc(CCN)cc1OC | 1.204 | 16 MU | – |
| COc1ccc(CC(C)N)c2c1OCO2 (stereo not drawn) | 0.477 | 3 MU | – |
| CCCCOc1c(OC)cc(CCN)cc1OC | 0.301 | 2 MU | – |

| SMILES | Log activity (Homo sapiens [1]) | Activity (Homo sapiens [2]) | ED50 (Rattus norvegicus) |
| --- | --- | --- | --- |
| CCOc1cc(CCN)cc(OCC)c1OC | -0.301 | <1 MU | – |
| CCCOc1cc(OC)c(CC(C)N)cc1OC (stereo not drawn) | 1.301 | 20 MU | – |
| CCOc1cc(CCN)cc(OCC)c1SC | -0.301 | <1 MU | – |
| CCOc1cc(CCN)cc(SC)c1OC | -0.301 | <1 MU | – |
| CCOc1cc(CCN)cc(SCC)c1OCC | -0.301 | <1 MU | – |
| COc1cc(CC(C)N)cc(C)c1OCc1ccccc1 (stereo not drawn) | 0.301 | 2 MU | – |
| COc1cc(CC(C)N)c(OC)cc1CC(C)C (stereo not drawn) | 1.301 | 20 MU | – |
| CCCCCc1cc(OC)c(CC(C)N)cc1OC (stereo not drawn) | 1 | 10 MU | – |
| COc1ccc2c(c1CC(C)N)OCO2 (stereo not drawn) | 1 | 10 MU | – |
| CCCOc1cc(CCN)cc(OC)c1OC | -0.301 | <1 MU | – |
| COc1ccc(CCN)cc1OC | -1 | <0.2 MU | – |
| COc1cc(CCN)cc(SC)c1OC | 0.778 | 6 MU | – |
| COc1cc(CCN)cc(OC)c1SC | 1.079 | 12 MU | – |
| COc1ccc(CC(C)N)cc1OC (stereo not drawn) | -0.301 | 0.5 MU | – |
| COc1ccc(CCN)c(OC)c1OC | -0.301 | <1 MU | – |
| COc1ccc(CC(C)N)c(OC)c1 (stereo not drawn) | 0.699 | 5 MU | 4.88 mg/kg |
| COc1cc(CC(C)N)cc(OC)c1OC (stereo not drawn) | 0.301 | 2 MU | 6.34 mg/kg |
| COc1ccc(CC(C)N)c(OC)c1OC (stereo not drawn) | 0.301 | 2 MU | 7.8 mg/kg |
| CCOc1c(OC)cc(CCN)cc1OC | 0.845 | 7 MU | – |
| CCOc1c(OC)cc(CCN)cc1SC | 0.778 | 6 MU | – |
| CCSc1c(OC)cc(CCN)cc1OC | 1.301 | 20 MU | – |

| SMILES | Log activity (Homo sapiens [1]) | Activity (Homo sapiens [2]) | ED50 (Rattus norvegicus) |
| --- | --- | --- | --- |
| CCCOc1c(OC)cc(CCN)cc1OC | 0.778 | 6 MU | – |
| COc1cc(OC)c(CC(C)N)c(OC)c1 (stereo not drawn) | 1 | 10 MU | 3.69 mg/kg |
| CCOc1cc(CCN)cc(OCC)c1SCC | -0.301 | <1 MU | – |
| CCOc1cc(CCN)cc(SCC)c1OC | -0.301 | <1 MU | – |
| COc1cc(OC)c(OC)cc1CCN | -0.301 | <1 MU | – |
| CCOc1cc(CCN)cc(OCC)c1OCC | -0.301 | <1 MU | – |
| NCCc1ccc2c(c1)OCO2 | 0 | 1 MU | – |
| CCOc1cc(CCN)cc(OC)c1SC | 0.602 | 4 MU | – |
| COc1c(CC(C)N)cc2c(c1OC)OCO2 (stereo not drawn) | 0.699 | 5 MU | – |
| COc1cc(SC)c(OC)cc1CC(C)N (stereo not drawn) | 1.602 | 40 MU | – |
| CCCCc1cc(OC)c(CC(C)N)cc1OC (stereo not drawn) | 1.602 | 40 MU | 0.91 mg/kg |
| CCc1cc(OC)c(CC(C)N)cc1OC (stereo not drawn) | 2 | 100 MU | 0.23 mg/kg |
| CCOc1cc(OC)c(CC(C)N)cc1OC (stereo not drawn) | 1.301 | 20 MU | – |
| COc1cc(OC)c(OC)cc1CC(C)N (stereo not drawn) | 1.301 | 20 MU | – |
| CCCc1cc(OC)c(CC(C)N)cc1OC (stereo not drawn) | 1.903 | 80 MU | 0.17 mg/kg |
| COc1ccc(OC)c(CC(C)N)c1 (stereo not drawn) | 0.903 | 8 MU | 5.51 mg/kg |
| COc1cc(CC(C)N)c(OC)cc1C (stereo not drawn) [DOM] | 1.903 | 80 MU | 0.44 mg/kg |
| COc1cc(CCN)cc(OC)c1OC [MESCALINE] | 0 | 1 MU | 14.6 mg/kg |
| COc1ccc(CC(C)N)cc1 (stereo not drawn) [PARA-METHOXYAMPHETAMINE] | 0.699 | 5 MU | – |
| CC(N)Cc1ccc2c(c1)OCO2 (stereo not drawn) [TENAMFETAMINE] | 0.477 | 3 MU | 1.68 mg/kg |
